According to US11370897B2, “Curable composition comprising UV stabilizer” (Momentive Performance Materials Inc., priority 2019, dated 2022):
Read-outs that look alike come from different tables or passages of the source.

Assay: Solubility tests of resorcinol products in alcoholic solvents
Type: physicochemical
Conditions: organic solvent or mixture, thermodynamic from solid, 20° C., Table 11, by product ratio DBMR/BTMR/DTMR
Protocol: To determine the solubility of resorcinol products, the following procedure was used:
0.50 g of pre-dried product (45 min @75° C. in oven) was combined with 5.00 ml of solvent (4.03 g of 2-butanol or 4.60 g of 1-methoxy-2-propanol). The mixture was handled in an ultrasonic bath for 1 min and stored afterwards under constant climate (20° C.) for 24 h.
The overlying solution was transfused carefully with a pipette. The solid content of this solution was measured thermogravimetrically with a halogen moisture analyzer (Mettler Toledo). This test procedure was repeated three times.

[1] = 1-methoxy-2-propanol, read-out: Solubility in 1-Methoxy-2-propanol
[2] = 2-butanol, read-out: Solubility in 2-butanol

SMILES	solubility at 24 h [1] [µg/mL]	solubility at 24 h [2] [µg/mL]
Cc1cccc(C(=O)c2cc(C(=O)c3cccc(C)c3)c(O)c(C)c2O)c1 [DTMR, ditoluoylacyl-2-methyl resorcinol]	15000	1000
Cc1c(O)c(C(=O)c2ccccc2)cc(C(=O)c2ccccc2)c1O [DBMR, dibenzoylacyl-2-methyl resorcinol]	4000	< 1000
